Literature values, collected in article PMC12019481 (Nature Communications, 2025).

Assays:
GAT1 = GAT1 (Homo sapiens, UniProt P30531)
Sequence of GAT1 (P30531 whole entry): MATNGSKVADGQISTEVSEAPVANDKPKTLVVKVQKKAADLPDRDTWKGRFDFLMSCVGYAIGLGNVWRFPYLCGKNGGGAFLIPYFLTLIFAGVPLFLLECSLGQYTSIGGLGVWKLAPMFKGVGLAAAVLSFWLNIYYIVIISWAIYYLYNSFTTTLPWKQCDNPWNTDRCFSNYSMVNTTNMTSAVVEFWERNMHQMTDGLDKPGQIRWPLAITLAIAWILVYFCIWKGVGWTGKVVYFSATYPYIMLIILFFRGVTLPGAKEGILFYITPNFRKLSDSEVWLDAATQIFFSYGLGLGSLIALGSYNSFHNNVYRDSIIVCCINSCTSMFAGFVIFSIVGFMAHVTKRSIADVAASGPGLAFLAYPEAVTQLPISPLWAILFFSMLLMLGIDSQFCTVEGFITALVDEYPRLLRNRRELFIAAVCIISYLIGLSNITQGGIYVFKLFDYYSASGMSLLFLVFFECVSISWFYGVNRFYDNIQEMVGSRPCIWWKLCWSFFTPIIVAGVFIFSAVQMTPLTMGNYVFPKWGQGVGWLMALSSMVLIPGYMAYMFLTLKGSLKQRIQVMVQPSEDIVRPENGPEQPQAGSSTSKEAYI

Compound | selectivity for GAT3 (GAT3) | selectivity for GAT1 (GAT1)
5-(2-Thienyl)Isatin | ~ 167 fold | 
Cc1ccsc1C(=CCCN1CCC[C@@H](C(=O)O)C1)c1sccc1C [tiagabine] |  | 10,000–20,000 fold
